Laboratory results: KR20160024853A, “당뇨병 치료를 위한 주사형 나노-네트워크 겔” (메사추세츠 인스티튜트 오브 테크놀로지, priority 2013, dated 2016)

What was measured:
[1] = tested on: STZ-induced diabetic mice (male C57B6); assay: Blood glucose control in STZ-induced diabetic mice after one subcutaneous injection; assay type: in vivo, mouse; settings: after administration
[2] = Plasma human insulin in STZ-induced diabetic mice (human insulin ELISA); settings: mouse, in vivo

인슐린 용액: human recombinant insulin solution (zinc salt, Invitrogen)
time when BG rose to the hyperglycemic range [1]: 둘째 날 | plasma insulin concentration on the day after administration [2]: 급격한 감소
